{"source": "patent US20220062299A1", "about": "“USE OF GLUCOCORTICOID STEROIDS IN PREVENTING AND TREATING CONDITIONS OF MUSCLE WASTING, AGING AND METABOLIC DISORDER” (NORTHWESTERN UNIVERSITY, priority 2018, published 2022)", "key": {"[1]": {"test_system": "GRE-KRE genomic sites (Mef2C, Bckdha, Pck1, Nmnat3)", "assay": "Luciferase reporter experiments in electroporated mdx myofibers", "type": "in vivo, mouse", "details": "prednisone pulse 1 mg/kg combined with Klf15 overexpression", "from_the_text": "Luciferase experiments in live myofibers. Luciferase plasmids containing regulatory fragments were obtained cloning genomic sequences in the pGL4.23 backbone (#E8411; Promega, Madison, Wis.) using the KpnI-XhoI sites upstream of the minimal promoter site. Fragments were cloned conserving the genomic orientation with regards to transcriptional orientation, adding KpnI and XhoI tails to the appropriate extremities via Phusion PCR. Wildtype fragments […] were cloned from wildtype C57Bl/6J genomic DNA, while mutated fragments (Δ sites) were amplified from ad-hoc synthetized DNA oligonucleotides, using genomic sequences from the C57Bl/6J genomic background (see Table 5 for a complete list of sequences). Flexor digitorum brevis (FDB) fibers were transfected by in vivo electroporation. Methods were described previously in (DiFranco et al., 2009) with modifications described in (Demonbreun and McNally, 2015). Briefly, the hindlimb footpad was injected with 10 μl hyaluronidase (8 units) (Cat #H4272, Sigma, St. Louis, Mo.). […] Ex vivo luciferase assay was performed on whole, electroporated FDB muscles. […] Luminescence was recorded at the Synergy HTX multi-mode 96-well plate reader (BioTek®, Winooski, Vt.). […] Results are expressed as fold change to average vehicle. All luciferase quantitation assays were conducted blinded to treatment groups. […]"}, "[2]": {"test_system": "Klf15, Mef2C, Foxo3 loci in mdx muscle", "assay": "H3K27ac ChIP-seq on myofibers integrated with RNA-seq of mdx muscle", "type": "in vivo, mouse", "experimental": "H3K27ac ChIP-seq on muscle myofibers. Freshly-isolated whole quadriceps muscles (both per mouse) were finely minced and digested in 10 ml/muscle of PBS supplemented with 1 mM CaCl2 and 100 U/ml collagenase II (Cat #17101, Life Technologies, Grand Island, N.Y.) at 37° C. for 1 hour with shaking. The suspension was then filtered through a 40 μm strainer (Cat #22363547, Fisher Scientific, Waltham, Mass.) and the unfiltered fraction (enriched in myofibers) was kept for further steps. Separation of mononuclear fraction in the filtered fraction was confirmed at the microscope. Myofibers were fixed in 10 ml 1% PFA for 30 minutes at room temperature with gentle nutation. Fixation was quenched 1 ml of 1.375M glycine (Cat #BP381-5, Fisher Scientific, Waltham, Mass.) with gentle nutation for 5 minutes at room temperature. After centrifugation at 3000 g for 5 minutes, myofibers were lysed in 1.4 ml lysis buffer with approximately 25 μl 2.3 mm zirconia/silica beads (Cat #11079125z, BioSpec, Bartlesville, Okla.). Lysis buffer consisted of 10 mM HEPES (pH 7.3; Cat #H3375), 10 mM KCl (Cat #P9541), 5 mM MgCl2 (Cat #M8266), 0.5 mM DTT (Cat #646563), 3 μg/ml cytochalasin B (C6762; all reagents from Sigma, St. Louis, Mo.); protease inhibitor cocktail (Cat #11852700, Roche, Mannheim, Germany)). Myofibers were them homogenized by means of Mini-BeadBeater-16 (Cat #607, Biospec, Bartlesville, Okla.) for 30 sec, then by rotating at 4° C. for 30 minutes. […] DNA was purified using the MinElute purification kit (cat #28004; Qiagen, Hilden, Germany), quantitated using Qubit reader and reagents. Library preparation and sequencing were conducted at the NU Genomics Core, using TrueSeq ChiP-seq library prep (with size exclusion) on 5 ng chromatin per ChIP sample or pooled input, and HiSeq 50 bp single-read sequencing (approximately 60 million read coverage per sample). […]"}}}
{"smiles": "C[C@]12C=CC(=O)C=C1CC[C@@H]1[C@@H]2C(=O)C[C@@]2(C)[C@H]1CC[C@]2(O)C(=O)CO", "note": "[prednisone, Prednisone]", "values": [{"measurement": "Fluc reporter activity of GRE-KRE constructs", "setting": "[1]", "result": "additive effect"}, {"measurement": "Foxo3 and other muscle atrophy factors", "setting": "[2]; daily prednisone", "result": "upregulation"}, {"measurement": "levels of Klf15 and Mef2C", "setting": "[2]; daily prednisone", "result": "reduced"}, {"measurement": "H3K27ac marks and transcription of Klf15 and Mef2C", "setting": "[2]; weekly prednisone", "result": "increased"}]}
